This passage reports IC50 results from publication PMC12486152, “Design, modular synthesis and screening of 58 shape-diverse 3-D fragments” (Chemical Science, 2025).

What is called IC50 is the concentration at which inhibition is half-maximal.

The target in the test is T1, N-acetylglucosaminyltransferase V (MGATV) (Homo sapiens, UniProt Q09328).
T1 construct: gene MGAT5
The experiment in a line: X-ray crystal structure by soaking; also thermal shift, STD NMR and enzyme (UDP-Glo) inhibition (IC50, n = […]). The class given is biochemical.

T1 sequence (Q09328 214-741): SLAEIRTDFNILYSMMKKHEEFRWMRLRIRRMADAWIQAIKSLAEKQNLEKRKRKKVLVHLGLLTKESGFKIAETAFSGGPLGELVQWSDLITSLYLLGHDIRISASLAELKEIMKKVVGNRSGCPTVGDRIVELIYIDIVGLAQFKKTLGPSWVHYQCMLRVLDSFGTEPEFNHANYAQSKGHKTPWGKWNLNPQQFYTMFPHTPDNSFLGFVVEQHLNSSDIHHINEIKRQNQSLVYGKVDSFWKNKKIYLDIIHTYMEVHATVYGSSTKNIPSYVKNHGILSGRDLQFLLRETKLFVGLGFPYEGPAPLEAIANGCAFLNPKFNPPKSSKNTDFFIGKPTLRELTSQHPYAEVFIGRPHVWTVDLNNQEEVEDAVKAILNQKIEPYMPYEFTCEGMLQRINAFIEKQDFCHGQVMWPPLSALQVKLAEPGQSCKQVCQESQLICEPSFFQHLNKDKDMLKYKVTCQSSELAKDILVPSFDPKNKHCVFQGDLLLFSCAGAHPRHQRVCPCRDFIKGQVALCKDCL

For the compound `CC(=O)N1CCCC(C(=O)O)(c2ccc(C)cc2)C1` (racemic) [8p], the 50% inhibitory concentration (IC50) was roughly 4.4 mM.
